Results taken from ChEMBL document CHEMBL5143569 (Eur J Med Chem, 2022).

Assays:
[1] = target: T1, Tyrosine-protein phosphatase non-receptor type 11 (Homo sapiens, UniProt Q06124)
T1 sequence (Q06124 whole entry): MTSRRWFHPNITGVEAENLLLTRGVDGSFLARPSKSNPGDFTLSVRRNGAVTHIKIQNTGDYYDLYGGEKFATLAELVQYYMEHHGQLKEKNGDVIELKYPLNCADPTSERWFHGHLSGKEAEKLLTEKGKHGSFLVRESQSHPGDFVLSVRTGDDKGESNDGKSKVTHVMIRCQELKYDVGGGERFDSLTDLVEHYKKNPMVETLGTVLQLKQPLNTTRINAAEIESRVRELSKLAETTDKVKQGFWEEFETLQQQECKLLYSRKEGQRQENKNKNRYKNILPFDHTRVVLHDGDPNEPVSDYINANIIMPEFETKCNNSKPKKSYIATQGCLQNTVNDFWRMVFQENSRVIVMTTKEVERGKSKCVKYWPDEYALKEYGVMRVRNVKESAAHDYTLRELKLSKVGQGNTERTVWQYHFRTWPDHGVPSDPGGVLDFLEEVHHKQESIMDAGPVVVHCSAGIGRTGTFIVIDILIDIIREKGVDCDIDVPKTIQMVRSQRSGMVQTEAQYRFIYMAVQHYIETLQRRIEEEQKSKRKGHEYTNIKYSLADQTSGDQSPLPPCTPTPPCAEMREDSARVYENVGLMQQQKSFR

[2] = target: T1, Tyrosine-protein phosphatase non-receptor type 11; remark: listed apart in the source
Description: Allosteric inhibition of recombinant human SHP2 PTP domain (237 to 535 residues) using DiFMUP as substrate preincubated for 30 mins and followed by substrate addition and measured by microplate reader method

[3] = target: T1, Tyrosine-protein phosphatase non-receptor type 11; assay: Reversible inhibition of wild-type human SHP2 using DiFMUP as substrate and measured by jump dilution assay
[4] = target: Tyrosine-protein phosphatase non-receptor type 6 (Homo sapiens, UniProt P29350); assay: Inhibition of wild-type SHP1 (2 to 595 residues) (unknown origin) using DiFMUP as substrate and measured by biochemical assay
[5] = target: T2, Tyrosine-protein phosphatase non-receptor type 1 (Homo sapiens, UniProt P18031); assay: Inhibition of wild-type PTP1B (2 to 435 residues) (unknown origin) using DiFMUP as substrate and measured by biochemical assay
T2 sequence (P18031 whole entry): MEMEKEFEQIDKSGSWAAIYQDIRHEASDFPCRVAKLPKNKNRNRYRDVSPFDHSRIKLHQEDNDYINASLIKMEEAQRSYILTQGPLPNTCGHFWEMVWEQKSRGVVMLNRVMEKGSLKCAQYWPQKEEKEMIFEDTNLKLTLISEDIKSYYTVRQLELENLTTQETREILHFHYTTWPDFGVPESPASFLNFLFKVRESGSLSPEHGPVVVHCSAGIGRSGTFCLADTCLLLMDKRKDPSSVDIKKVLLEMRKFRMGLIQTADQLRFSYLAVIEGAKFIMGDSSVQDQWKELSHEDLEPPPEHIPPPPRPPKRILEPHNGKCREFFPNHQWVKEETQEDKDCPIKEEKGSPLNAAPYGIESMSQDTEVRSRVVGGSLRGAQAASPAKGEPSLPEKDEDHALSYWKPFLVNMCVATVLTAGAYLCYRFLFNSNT

[6] = Inhibition of SHP2 E76A mutant (unknown origin); set-up: species or system Homo sapiens

Chain of Tyrosine-protein phosphatase non-receptor type 6 (P29350 whole entry, the tested form may be a part): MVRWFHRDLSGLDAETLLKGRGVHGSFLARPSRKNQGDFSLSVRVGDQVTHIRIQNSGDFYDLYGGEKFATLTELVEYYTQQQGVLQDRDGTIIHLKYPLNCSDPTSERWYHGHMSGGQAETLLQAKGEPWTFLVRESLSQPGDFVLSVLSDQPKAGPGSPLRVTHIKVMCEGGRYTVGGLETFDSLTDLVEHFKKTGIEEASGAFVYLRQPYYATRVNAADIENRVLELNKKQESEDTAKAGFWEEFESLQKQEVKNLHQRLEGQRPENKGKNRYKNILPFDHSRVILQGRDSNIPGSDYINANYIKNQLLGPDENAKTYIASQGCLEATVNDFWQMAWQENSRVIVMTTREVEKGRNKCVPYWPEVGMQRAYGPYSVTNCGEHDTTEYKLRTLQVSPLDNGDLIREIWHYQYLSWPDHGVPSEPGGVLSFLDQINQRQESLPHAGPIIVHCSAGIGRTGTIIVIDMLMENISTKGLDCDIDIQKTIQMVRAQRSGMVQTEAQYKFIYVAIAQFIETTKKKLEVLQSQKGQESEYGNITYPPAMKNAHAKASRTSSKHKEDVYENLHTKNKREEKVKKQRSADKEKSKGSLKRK

Structure (SMILES) | IC50 [1] [µM] | IC50 [2] [µM] | further results
CC1(N)CCN(c2cnc(Sc3ccccc3F)c(N)n2)CC1 | 0.484 | > 10 | –
CC1(N)CCN(c2cnc(Sc3ccccc3Br)c(N)n2)CC1 | 0.059 | > 10 | –
COc1ccccc1Sc1ncc(N2CCC(C)(N)CC2)nc1N | 0.079 | > 10 | –
CC1(N)CCN(c2cnc(Sc3cccc(Cl)c3)c(N)n2)CC1 | 0.747 | > 10 | –
Nc1nc(N2CCC(N)CC2)cnc1-c1cccc(Cl)c1Cl | 2.77 | > 10 | –
CC1(N)CCN(c2cnc(-c3cccc(F)c3F)c(N)n2)CC1 | 5.71 | > 10 | –
CC1(N)CCN(c2cnc(-c3ccc(C#N)cc3)c(N)n2)CC1 | 14.8 | > 10 | –
Nc1nc(N2CCNCC2)cnc1-c1cccc(Cl)c1Cl | 0.712 | > 10 | –
CC1(N)CCN(c2cnc(Sc3ccc4ccccc4c3)c(N)n2)CC1 | 0.976 | > 10 | –
CC1(CN)CCN(c2cnc(Sc3cccc(Cl)c3Cl)c(N)n2)CC1 | – | > 10 | Ki [3]: 0.022 µM; IC50 [4]: > 100 µM; IC50 [5]: > 100 µM
Nc1nc(N2CCC(O)CC2)cnc1-c1cccc(Cl)c1Cl | 6.18 | > 10 | –
CNC1CCN(c2cnc(-c3cccc(Cl)c3Cl)c(N)n2)CC1 | 1.64 | > 10 | –
CC1(N)CCN(c2cnc(Sc3ccc(Cl)cc3)c(N)n2)CC1 | 3.84 | > 10 | –
CC1(N)CCN(c2cnc(SCc3ccccc3)c(N)n2)CC1 | 10.8 | > 10 | –
Cc1ccccc1Sc1ncc(N2CCC(C)(N)CC2)nc1N | 1.8 | > 10 | –
CC1(O)CCN(c2cnc(-c3cccc(Cl)c3Cl)c(N)n2)CC1 | 13.7 | > 10 | –

Structure (SMILES) | IC50 [1] [µM] | IC50 [2] [µM] | further results
CN1CCN(c2cnc(-c3cccc(Cl)c3Cl)c(N)n2)CC1 | 0.695 | > 10 | –
CC1(N)CCN(c2cnc(Sc3cccc(Cl)c3Cl)c(N)n2)CC1 | 0.025 | > 10 | –
Nc1nc(N2CC[C@H](N)C2)cnc1-c1cccc(Cl)c1Cl | 2.03 | > 10 | –
COc1cccc(-c2nnc3n(Cc4ccc(C(=O)N5CCC[C@H]5C(=O)O)cc4Cl)c(=O)c4ccccc4n23)c1O | 60 | – | –
CC1(N)CCN(c2cnc(Sc3ccccc3)c(N)n2)CC1 | 0.811 | > 10 | –
CC1(N)CCN(c2cnc(Sc3cccc4ccccc34)c(N)n2)CC1 | 0.175 | > 10 | –
CC1(N)CCN(c2cnc(SC3CCCCC3)c(N)n2)CC1 | 9.55 | > 10 | –
CC1(N)CCN(c2cnc(Sc3ccccc3C(F)(F)F)c(N)n2)CC1 | 0.178 | > 10 | –
NCCC1CCN(c2cnc(-c3cccc(Cl)c3Cl)c(N)n2)CC1 | 0.858 | > 10 | –
Cc1ccc(-c2ncc(N3CCC(C)(N)CC3)nc2N)cc1 | 9.03 | > 10 | –
CC1(N)CCN(c2nc(-c3ccc4cc(Br)ccc4c3)cs2)CC1 | – | – | IC50 [6]: 0.71 µM
CC1(N)CCN(c2cnc(-c3cccc(Cl)c3Cl)c(N)n2)CC1 | – | – | IC50 [4]: > 100 µM; IC50 [5]: > 100 µM
CN(CCN)c1cnc(-c2cccc(Cl)c2Cl)c(N)n1 | 9.66 | > 10 | –
CC1(N)CCN(c2cnc(SCc3ccccc3Cl)c(N)n2)CC1 | 5.6 | > 10 | –
CC1(N)CCN(c2cnc(Sc3ccccc3Cl)c(N)n2)CC1 | 0.098 | > 10 | –
NCC1CCN(c2cnc(Sc3cccc(Cl)c3Cl)c(N)n2)CC1 | 0.11 | > 10 | –
